According to US20090143293A1, “Peptide inhibitors of protein kinase C gamma for pain management” (priority 2002, published 2009):
Entries after “also recorded” stand apart in the source; their conditions may differ. Read-outs that look alike come from different tables or passages of the source.

Key:
[1] = test system: allodynia and/or hyperalgesia; conditions: capsaicin model; cited from earlier work
[2] = test system: allodynia and/or hyperalgesia; conditions: formalin model; cited from earlier work
pain = conditions: reported in WO 00/01415; listed as εV1-2 peptide; cited from earlier work
[3] = test system: formalin-induced spontaneous pain behaviors; assay: Formalin-induced nociception in rat pups, peptide given before formalin (Example 1); type: in vivo, rat (Sprague-Dawley pups)
Method: In the study detailed in Example 1, the peptide identified herein as SEQ ID NO:4 was administered to rat pups on postnatal days 7, 15, and 21. The peptide was administered 15 minutes prior to intraplantar formalin injection. Following formalin injection, spontaneous pain behaviors were recorded every two minutes for one hour. In this study, an εPKC antagonist peptide from the V1 domain was used as a positive, comparative control. As noted above, the εV1-2 peptide, EVASLKPT (SEQ ID NO:6) has been described, for example, in U.S. Pat. No. 5,783,405 and by Dorn et al. (PNAS, […]:12798 (1999)).
Both the εV1-2 peptide and the γPKC peptide V5-3 (SEQ ID NO:4) were conjugated via terminal cysteine residues to a carrier peptide, Tat (SEQ ID NO:7), for administration. One group of animals was treated with the Tat carrier peptide alone as a control. Another group of animals received only saline as a control.
The results are shown in FIGS. 2A-2C, where average pain scores for rat pups treated with γPKC (closed squares), εPCK (open squares), the Tat carrier peptide alone (open triangles), or saline (open circles) are shown as a function of time, in minutes. The average pain score was determined by a time sampling method, where the animal's behavior was recorded every two minutes. A score of “1” was given if the animal was licking, shaking, or elevating the formalin-treated paw. The three pain scores over a six minute period of observation were summed into a single score, to give a maximum possible score of 3 for each animal for each six minute interval. The average pain score was determined from the individual scores of the animals in each treatment group. FIG. 2A corresponds to the average pain scores for 7 day old rat pups, where 1% formalin was administered to the paw 15 minutes post delivery of the peptide or control substance.
Rat pups (male and female, Sprague-Dawley) were randomly divided at selected days after birth (postnatal days 7, 15, and 21) into groups for treatments. Each group received a PKC V5-domain test peptide, a positive, comparative control peptide, a carrier peptide control, or a saline control. The V5-domain test peptide was a γPKC peptide identified herein as SEQ ID NO:4 and as the comparative control peptide was a V1 domain εPKC peptide identified herein as SEQ ID NO:6. Peptides were reversibly conjugated to a Tat-peptide carrier (SEQ ID NO:7) via a cysteine-cysteine bond at their N termini. The peptides were administered via direct lumbar puncture (intrathecal administration) at the indicated dose, typically a dose of 20 μM PKC peptide in 5 μL (7 day old pups) or 10 μL (15 and 21 day old pups) saline.
Fifteen minutes after administration of the peptides or the control substance, 1% formalin (7 day old pups) or 2.5% formalin (15 and 21 day old pups) was delivered intradermally to the paw. Spontaneous pain behaviors were recorded every two minutes for one hour following formalin injection. The time sampling method for behavioral observation was employed, in which the observer rapidly recorded the behavior of the animals every two minutes (Teng et al., Pain, 76:337 (1998). A score of “1” was given if the animal was licking, shaking, or elevating the hindpaw. A six minute period of observation provided a maximum pain score of “3” for each animal.

εPKC = target: T1, εPKC (Homo sapiens, UniProt Q02156); conditions: reported in the literature; listed as εV1-2 peptide; cited from earlier work
T1 sequence (Q02156 1-737): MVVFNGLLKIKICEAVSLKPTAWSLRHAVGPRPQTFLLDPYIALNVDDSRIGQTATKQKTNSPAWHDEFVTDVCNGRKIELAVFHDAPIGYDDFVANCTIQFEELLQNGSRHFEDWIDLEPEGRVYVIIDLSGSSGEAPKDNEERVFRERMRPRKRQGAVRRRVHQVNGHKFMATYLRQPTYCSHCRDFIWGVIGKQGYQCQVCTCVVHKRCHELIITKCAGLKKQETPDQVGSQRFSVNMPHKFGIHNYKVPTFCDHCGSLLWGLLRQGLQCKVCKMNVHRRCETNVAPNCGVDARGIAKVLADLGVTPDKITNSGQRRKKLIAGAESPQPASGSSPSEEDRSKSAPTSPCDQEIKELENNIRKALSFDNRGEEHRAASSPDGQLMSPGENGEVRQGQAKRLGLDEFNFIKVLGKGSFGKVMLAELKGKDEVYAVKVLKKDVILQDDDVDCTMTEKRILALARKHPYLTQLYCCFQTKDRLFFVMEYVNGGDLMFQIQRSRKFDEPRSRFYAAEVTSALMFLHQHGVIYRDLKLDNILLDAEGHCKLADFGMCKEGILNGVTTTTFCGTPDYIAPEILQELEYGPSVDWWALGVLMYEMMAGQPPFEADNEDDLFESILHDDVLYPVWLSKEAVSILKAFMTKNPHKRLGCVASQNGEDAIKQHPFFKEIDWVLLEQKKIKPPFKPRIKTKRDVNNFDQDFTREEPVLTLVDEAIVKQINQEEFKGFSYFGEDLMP

[4] = test system: capsaicin-induced nociception; assay: Capsaicin-induced nociception, paw withdrawal latency (Example 2); type: in vivo, rat (adult male Sprague-Dawley); conditions: 10 μM Tat-conjugated peptide intrathecal 15 min before 3% capsaicin, FIG. 3; for response to nociception (paw withdrawal latency): low rate heating
Method: Example 2 describes another study in support of the invention, where a γPKC V5 domain peptide (SEQ ID NO:4) was used for pain management in the capsaicin pain model. As a positive, comparative control, a V1 εPKC peptide (SEQ ID NO:6) was used. The peptides were conjugated to a Tat carrier peptide (SEQ ID NO:7) and were administered intrathecally to test animals prior to application of capsaicin to a paw. […] minutes after capsaicin application, paw withdrawal latency was measured at regular intervals for 75 minutes. The results are shown in FIG. 3, for Tat-derived γPCK (closed squares), Tat-derived-εPCK (open squares), the Tat carrier peptide alone (open triangles), and for animals treated with saline (open circles).
Adult male Sprague-Dawley rats weighing between 200-250 g were lightly anaesthetized with urethane (800 mg/kg, i.p.). The dorsal surface of each animal was painted with India ink to ensure heat was applied evenly to the dorsal surface. Baseline measurements of all animals (n=10/test group) were taken for 45 minutes for both C-fibers (0.9° C./sec heating rate) and Aδ-fibers (6.5° C./sec heating rate). The test V5 peptide was derived from the V5 region of γPKC (SEQ ID NO:4) and was conjugated to a Tat-carrier peptide (SEQ ID NO:7). As a positive comparative control, a peptide from the V1 domain of εPKC (SEQ ID NO:6) was also conjugated to a Tat-carrier peptide (SEQ ID NO:7). The peptides were delivered intrathecally via direct lumbar puncture (10 μM peptide in 20 μL saline) 15 minutes prior to topical application of capsaicin to the left hind paw (100 μL of 3% capsaicin). Saline and the Tat-carrier peptide alone (SEQ ID NO:7) were also administered to two separate groups of control animals. A latency measurement was taken post peptide but prior to capsaicin application to control for direct peptide effect. Twenty minutes after the application of capsaicin, the ink was re-applied, and the dorsal surface of the hind paws was subjected to low rate heating for a maximum of 20 seconds. Foot withdrawal latencies were measured at 15 minute intervals.

[5] = test system: formalin-induced spontaneous pain behaviors; assay: Dose response study in the formalin-induced pain model, rats at postnatal days 7, 15, 21; type: in vivo, rat
Text: In postnatal day 21 and older rats, intraplantar formalin produces a stereotypic biphasic behavioral pattern. Phase 1 is characterized by intense shaking, lifting and licking of the offending hindpaw produced by activation of peripheral nociceptors. Activation of descending inhibitory pathways follows, reducing spontaneous pain behaviors (quiescent phase). Quiescence is followed by a second phase, characterized by a revival of pain behaviors, and at least partially mediated by central mechanisms.
A dose response study on rats at postnatal days 7, 15, and 21 using the γPCK V5 peptide identified herein by SEQ ID NO:4. In this study, the average pain scores as a function of time were determined, as described above, using the formalin-induced pain model. The peptide was administered at dosages of 2 μM, 10 μM and 20 μM fifteen minutes […] formalin injection. The results are shown in FIGS. 4A-4C for rats at postnatal day 7 (FIG. 4A), postnatal day 15 (FIG. 4B) and postnatal day 21 (FIG. 4C), where the 2 μM γPKC dose is represented by inverted triangles, the 10 μM dose of γPKC is represented by diamonds, and the 20 μM γPKC dose by circles. The control groups received 10 μM of the Tat carrier peptide and are represented by triangles.

[6] = test system: allodynia and/or hyperalgesia; conditions: neuropathy model; cited from earlier work
[7] = 7 day old rat pups, 1% formalin to paw 15 min after intrathecal Tat-conjugated peptide, FIG. 2A
[8] = 15 day old rat pups, 2.5% formalin 15 min after intrathecal Tat-conjugated peptide, FIG. 2B
[9] = 21 day old rat pups, 2.5% formalin 15 min after intrathecal Tat-conjugated peptide, FIG. 2C
[10] = 2, 10, 20 μM, postnatal days 7, 15, 21, FIGS. 4A-4C

CCCCCCCCCCCCC(=O)N1CCCCC1CNC(=O)C(N)CCCCN (centres unmarked) [NPC15437]
allodynia and/or hyperalgesia induced by the inflammatory agents [1]: reversal of the allodynia and/or hyperalgesia

COc1ccc2c(c[n+](C)c3c4cc5c(cc4ccc23)OCO5)c1OC [chelerythrine]
allodynia and/or hyperalgesia induced by the inflammatory agents [2]: reversal of the allodynia and/or hyperalgesia

EVASLKPT [SEQ ID NO:6, peptide derived from the V1 domain of εPKC, positive comparative control, reference compound]
pain (pain): reported to lessen pain; also recorded: ameliorate pain
average pain score relative to control pups [3, 7]: provided a greater attenuation of formalin-induced nociception
average pain score relative to control pups [3, 8]: contribute to nociception relief
average pain score relative to control pups [3, 9]: contribute to nociception relief
selective inhibition of εPKC (εPKC): selective inhibitor of εPKC; also recorded: selectively inhibit PCKε action
reducing the paw withdrawal latency [4]: about 50%
response to nociception (paw withdrawal latency) [4]: anti-hyperalgesic

RLVLAS (peptide derived from the V5 domain of the gamma isozyme of PKC) [SEQ ID NO:4, peptide derived from the V5 domain of the γ isozyme of PKC]
average pain score relative to control pups [3, 7]: effective to lessen pain
average pain score relative to control pups [3, 8]: effective to alleviate pain
average pain score relative to control pups [3, 9]: provided a reduction in pain
duration of formalin-induced pain ([3]; summary of FIGS. 2A-2C): effectively shortened the duration
formalin-induced spontaneous pain behaviors ([3]; summary of FIGS. 2A-2C, postnatal days 7, 15, 21): attenuated formalin-induced spontaneous pain behaviors
phase 1 of formalin-induced spontaneous pain behaviors [5, 10]: but not phase 1
phase 2 of formalin-induced spontaneous pain behaviors [5, 10]: attenuated phase 2
attenuation of phase 2 behaviors ([5]; 7 day old rats, highest dose (20 μM)): mild anti-nociception
duration of phase 2 behaviors ([5]; 15 day old rats): shortened the duration of phase 2 behaviors
duration of phase 2 behaviors ([5]; 21 day old rats): shortened the duration of phase 2 behaviors
attenuation of phase 2 behaviors ([5]; 21 day old rats, all three doses (2, 10, 20 μM)): more robust anti-nociception
response to nociception (paw withdrawal latency) [4]: induced an analgesic effect, producing an increase of threshold in the initial time point
response to nociception (paw withdrawal latency) ([4]; listed as γPKC V5 domain peptide): effective to modulate the response to nociception

calphostin
allodynia and/or hyperalgesia induced by the inflammatory agents [6]: reversal of the allodynia and/or hyperalgesia
